In this assay the target is SHP2 (Homo sapiens (Human), UniProt Q06124). The assay can be described thus: SHP2 allosteric inhibition assay (DiFMUP prompt fluorescence). The format is biochemical. Particulars: 0.5 nM SHP2 activated with 0.5 μM peptide IRS1_pY1172(dPEG8)pY1222; substrate DiFMUP; 25° C.
Chain of SHP2 (Q06124 whole entry): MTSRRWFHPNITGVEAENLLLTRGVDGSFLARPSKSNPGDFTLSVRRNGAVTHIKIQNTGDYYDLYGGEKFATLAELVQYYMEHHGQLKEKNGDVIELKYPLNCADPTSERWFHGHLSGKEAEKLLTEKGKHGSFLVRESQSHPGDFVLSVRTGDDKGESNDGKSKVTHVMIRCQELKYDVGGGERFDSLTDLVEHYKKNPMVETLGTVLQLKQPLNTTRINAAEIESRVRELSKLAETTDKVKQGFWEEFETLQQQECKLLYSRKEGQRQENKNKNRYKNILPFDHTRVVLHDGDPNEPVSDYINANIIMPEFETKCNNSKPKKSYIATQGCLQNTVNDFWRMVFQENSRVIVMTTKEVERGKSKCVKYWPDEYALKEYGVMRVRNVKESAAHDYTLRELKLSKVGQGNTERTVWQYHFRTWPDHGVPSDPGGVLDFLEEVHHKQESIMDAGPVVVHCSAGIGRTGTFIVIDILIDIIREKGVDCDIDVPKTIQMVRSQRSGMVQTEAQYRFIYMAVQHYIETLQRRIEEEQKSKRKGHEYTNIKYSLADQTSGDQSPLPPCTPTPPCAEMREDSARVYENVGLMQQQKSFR
Consider `Cn1c(N2CCC(C)(CN)CC2)nc(N)c(Sc2cccc(C#N)c2)c1=O` [Example 10], for which the IC50 (commonly the concentration needed to halve the response being measured) was 5630 nM.

Compound `COc1ccc(-c2c(N)nc(N3CCC4(CC3)CO[C@@H](C)[C@H]4N)n(C)c2=O)cc1C` [Example 173] came in with an IC50 of 175 nM.

For `C[C@@H]1OCC2(CCN(c3nc(N)c(-c4ccc(F)cc4F)c(=O)n3C)CC2)[C@@H]1N` [Example 156], the IC50 came out at 48 nM. In the case of `C[C@@H]1OCC2(CCN(c3nc(N)c(-c4ccc(OCc5ccccc5)cc4)c(=O)n3C)CC2)[C@@H]1N` [Example 149], half-maximal inhibition (IC50) required 43 nM. The figure for `Cn1c(N2CCC(C)(CN)CC2)nc(N)c(Sc2cccc(N)c2Cl)c1=O` [Example 8] is 232 nM; for `C[C@@H]1OCC2(CCN(c3nc(N)c(Sc4ccccc4Cl)c(=O)n3C)CC2)[C@@H]1N` [Example 27] it is 25 nM.

Compound `CC1(CN)CCN(c2nc(N)c(Sc3cccnc3C(F)(F)F)c(=O)[nH]2)CC1` [Example 90, 6-amino-2-(4-(aminomethyl)-4-methylpiperidin-1-yl)-5-((2-(trifluoromethyl)pyridin-3-yl)thio)pyrimidin-4(3H)-one] gave an IC50 of 66 nM. With `C[C@@H]1OCC2(CCN(c3nc(N)c(-c4ccc(C(C)(C)C)cc4)c(=O)n3C)CC2)[C@@H]1N` [Example 174] the figure was 183 nM; with `COc1ccccc1-c1c(N)nc(N2CCC3(CC2)CO[C@@H](C)[C@H]3N)n(C)c1=O` [Example 181], 840 nM.

In turn, `Cn1c(N2CCC(C)(CN)CC2)nc(N)c(Sc2ccnc(N)c2Cl)c1=O` [Example 4] registered an IC50 of 53 nM. Against the preceding compound, the IC50 is about 16-fold lower. With `C[C@H]1C[C@@H](N)C2(CCN(c3nc(N)c(-c4ccccc4)c(=O)n3C)CC2)C1` [Example 140] the figure was 25 nM; with `Cn1c(N2CCC3(CC2)C[C@@H](C(F)(F)F)C[C@H]3N)nc(N)c(-c2cccc(Cl)c2Cl)c1=O` [Example 148], 43 nM. Compound `C[C@H]1C[C@@H](N)C2(CCN(c3nc(N)c(Sc4cc(N)cnc4Cl)c(=O)n3C)CC2)C1` [Example 68] came in with an IC50 of 10 nM. On to `C[C@@H]1CC2(CCN(c3nc(N)c(Sc4ccnc(N)c4Cl)c(=O)n3C)CC2)[C@@H](N)[C@H]1F` (single isomer, unassigned) [Example 37], for which the IC50 was determined as 47 nM. The compound `C[C@@H]1OCC2(CCN(c3nc(N)c(-c4ccc(C5CCCCC5)cc4)c(=O)n3C)CC2)[C@@H]1N` [Example 163] showed an IC50 of 73 nM. With `CC1(CN)CCN(c2ncc(-c3cccc(Cl)c3Cl)c(=O)[nH]2)CC1` [Example 200] the figure was more than 100000 nM. With `Cn1c(N2CCC(C)(CN)CC2)nc(N)c(Sc2cccc(OC(F)(F)F)c2)c1=O` [Example 11], the midpoint of inhibition, the IC50, lay at 441 nM. `Cn1c(N2CCC3(CC2)C[C@H](F)C[C@H]3N)nc(N)c(Sc2cccnc2C(F)(F)F)c1=O` [Example 35] returned an IC50 of 24 nM. With `C[C@H]1C[C@@H](N)C2(CCN(c3nc(N)c(Sc4ccncc4Cl)c(=O)n3C)CC2)C1` [Example 76] the figure was 27 nM; with `C[C@H]1CC2(CCN(c3nc(N)c(Sc4cccnc4C(F)(F)F)c(=O)n3C)CC2)[C@@H](N)[C@@H]1C(F)(F)F` (single isomer, unassigned) [Example 64], 856 nM; with `Cc1ncccc1-c1c(N)nc(N2CCC3(CC2)CO[C@@H](C)[C@H]3N)n(C)c1=O` [Example 183], 1590 nM.

`C[C@@H]1OCC2(CCN(c3nc(N)c(-c4ccc(Cl)c(Cl)c4)c(=O)n3C)CC2)[C@@H]1N` [Example 177] showed an IC50 of 309 nM. With `Cn1c(N2CCC3(CC2)C[C@H](C(F)(F)F)C[C@H]3N)nc(N)c(Sc2cccnc2C(F)(F)F)c1=O` [Example 83] the figure was 56 nM; with `C[C@H]1C[C@@H](N)C2(CCN(c3nc(N)c(Sc4ccnc(Cl)c4C(F)(F)F)c(=O)n3C)CC2)C1` [Example 73], 71 nM.

With `C[C@@H]1CC2(CCN(c3nc(N)c(Sc4ccnc(N)c4Cl)c(=O)n3C)CC2)[C@H](N)C1(F)F` [Example 34], the IC50 came out at 57 nM.

Take `C[C@@H]1OCC2(CCN(c3nc(N)c(-c4cccc(C(F)(F)F)c4)c(=O)n3C)CC2)[C@@H]1N` [Example 184]: half-maximal inhibition (IC50) required 1690 nM. The figure for `C[C@@H]1OCC2(CCN(c3ncc(Sc4cccc(Cl)c4Cl)c(=O)[nH]3)CC2)[C@@H]1N` [Example 97] is 9 nM; for `C[C@@H]1OCC2(CCN(c3ncc(Sc4ccnc(N)c4Cl)c(=O)n3C)CC2)[C@@H]1N` [Example 113] it is 35 nM; for `C[C@H]1C[C@@H](N)C2(CCN(c3nc(N)c(Sc4cc(N)ccc4Cl)c(=O)n3C)CC2)C1` [Example 69] it is 10 nM. `Cn1c(N2CCC(C)(CN)CC2)ncc(Sc2cccnc2C(F)(F)F)c1=O` [Example 100] yielded an IC50 of 631 nM. As to `N[C@@H]1CCCC12CCN(c1ncc(Sc3cccnc3C(F)(F)F)c(=O)[nH]1)CC2` [Example 92], the IC50 was found to be 92 nM.

In turn, `Cn1c(N2CCC3(CC2)C[C@H](F)C[C@H]3N)nc(N)c(-c2ccccc2)c1=O` [Example 154] returned an IC50 of 46 nM. This IC50 is about 2-fold lower than that of the compound before.

For `Cn1c(N2CCC3(CC2)COC[C@H]3N)nc(N)c(Sc2cccc(Cl)c2Cl)c1=O` [Example 72], 33 nM corresponded to half-maximal inhibition (IC50). The IC50 values of the last two compounds are within 1.5-fold of each other. The figure for `C[C@@H]1OCC2(CCN(c3nc(N)c(-c4ccc(-c5ccccc5)cc4)c(=O)n3C)CC2)[C@@H]1N` [Example 168] is 107 nM; for `C[C@@H]1CC2(CCN(c3nc(N)c(-c4ccccc4)c(=O)n3C)CC2)[C@H](N)C1(F)F` [Example 165] it is 78 nM. The figure for `C[C@@H]1OCC2(CCN(c3nc(N)c(-c4ccc(OC5CC5)cc4)c(=O)n3C)CC2)[C@@H]1N` [Example 139] is 25 nM; for `C[C@H]1C[C@@H](N)C2(CCN(c3nc(N)c(Sc4cccnc4Cl)c(=O)n3C)CC2)C1` [Example 66] it is 20 nM; for `CCOc1nccc(Sc2c(N)nc(N3CCC4(CC3)CO[C@@H](C)[C@H]4N)n(C)c2=O)c1Cl` [Example 30] it is 32 nM. With `CC1(CN)CCN(c2ncc(Sc3cccc(Cl)c3Cl)c(=O)[nH]2)CC1` [Example 93] the figure was 65 nM. `Cc1nc(N2CCC3(CC2)CO[C@@H](C)[C@H]3N)n(C)c(=O)c1-c1ccccc1` [Example 197] returned an IC50 of 369 nM. With `C[C@@H]1OCC2(CCN(c3nc(N)c(-c4ccc(N(C)C)cc4)c(=O)n3C)CC2)[C@@H]1N` [Example 166] the figure was 88 nM. The figure for `C[C@H]1C[C@@H](N)C2(CCN(c3nc(N)c(Sc4ccncc4C(F)(F)F)c(=O)n3C)CC2)C1` [Example 75] is 18 nM. As for `C[C@H]1C[C@@H](N)C2(CCN(c3nc(N)c(-c4cccc(Cl)c4Cl)c(=O)n3C)CC2)C1` [Example 129], the IC50 was determined as 14 nM.

The compound `Cn1c(N2CCC(C)(CN)CC2)nc(N)c(Sc2ccccc2[N+](=O)[O-])c1=O` [Example 48] gave an IC50 of 300 nM. Against the preceding compound, the IC50 is about 21-fold higher.

The values above are taken from US10308660B2, “Compounds and compositions for inhibiting the activity of SHP2” (Novartis AG, priority 2015, dated 2019).
